We go through twelve compounds from ChEMBL document CHEMBL1201862, “PubChem BioAssay data set” (2004).

Some test systems named below: ACHN; BT-549; CAKI-1; DU-145; HCT-15; IGROV-1; MOLT-4; NCI-H460; NCI/ADR-RES; OVCAR-3; OVCAR-8; SF-295; SK-MEL-2; SN12C; SNB-19; SNB-75; TK-10; UACC-62; SR.
Holding throughout (test): NCI anticancer screen, dose series, 48 h

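Test compounds were applied to cells in 96-well plates for 48 hours at 5 doses. GI50 is the concentration that inhibits growth by half.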 Calls of active or inactive are those of the source. No stated cut-off is given here; in the data, active = GI50 up to about 1.1 µM and inactive = higher. Bounds are passed on as bounds.

As for `C=C1C(=O)OC2(C)CCC1CC1OC1(C)CCC=C(C)CCC2O` (configuration not stated), the GI50 in the test on ACHN is > 100 µM (inactive); in the test on BT-549, 6.24 µM (inactive); with CAKI-1 it was > 100 µM (inactive); with DU-145, 55 µM (inactive); in the test on HCT-15, 69.3 µM; with IGROV-1 it was > 100 µM (inactive). Also, the GI50 with MOLT-4 was 30.3 µM (inactive); in the test on NCI-H460 it was 46.9 µM (inactive); with NCI/ADR-RES it was > 100 µM (inactive); in the test with OVCAR-3 it was > 100 µM (inactive); in the test with OVCAR-8, > 100 µM (inactive); in the test with SF-295, > 100 µM (inactive). The GI50 was 75 µM (inactive) in the test on SK-MEL-2; 37.1 µM (inactive) in the test on SN12C; > 100 µM (inactive) with SNB-19; > 100 µM (inactive) in the test with SNB-75; > 100 µM (inactive) in the test with TK-10; 61.9 µM (inactive) in the test on UACC-62.

`CC12CCC(/C(=N/c3ccc([N+](=O)[O-])cc3)C1=O)C2(C)C` (configuration not stated): the GI50 with ACHN is > 100 µM (inactive); in the test with BT-549, 36.6 µM (inactive); with CAKI-1, 19.3 µM (inactive); in the test on DU-145 it was 25.7 µM (inactive); in the test with HCT-15 it was 24.6 µM; in the test with IGROV-1, 25.1 µM (inactive). Moreover, the GI50 in the test on NCI-H460 is 25.6 µM (inactive); in the test on NCI/ADR-RES, 23.3 µM (inactive); in the test on OVCAR-3, 21.4 µM (inactive); with OVCAR-8 it was 23 µM (inactive); with SF-295 it was 27.1 µM (inactive); in the test on SK-MEL-2, 19 µM (inactive). The GI50 in the test on SNB-19 is 33.4 µM (inactive); in the test with SR it was 22.5 µM (inactive); in the test with TK-10, 16.9 µM (inactive); in the test with UACC-62, > 100 µM (inactive).

For the compound `COC(=O)C1=C(C(=O)OC)C2(c3ccccc3)c3ccccc3C(=O)C1N2C1CCCCC1` (configuration not stated), the GI50 with ACHN is 29.2 µM (inactive); in the test with BT-549, > 100 µM (inactive); in the test on CAKI-1 it was 49.1 µM (inactive); in the test on DU-145, > 100 µM (inactive); with HCT-15, 48.2 µM; with IGROV-1, 49.4 µM (inactive). The GI50 was 6.61 µM (inactive) in the test with MOLT-4; 24.5 µM (inactive) in the test on NCI-H460; > 82 µM (inactive) in the test on NCI/ADR-RES; 72.6 µM (inactive) with OVCAR-3; 60.4 µM (inactive) in the test with OVCAR-8; 25.5 µM (inactive) in the test with SF-295. For the same compound, the GI50 was > 61.9 µM (inactive) in the test on SK-MEL-2; 49.5 µM (inactive) with SN12C; > 63.4 µM (inactive) in the test on SNB-19; > 66.8 µM (inactive) with SNB-75; 31.3 µM (inactive) with TK-10; 61.8 µM (inactive) with UACC-62.

On to `CCOC(=O)C1=CC(C)(C(=O)OCC)Nc2c(nc(N)[nH]c2=O)N1` (configuration not stated), for which the GI50 in the test with ACHN was > 10 µM (inactive); in the test with BT-549, 7.31 µM (inactive); in the test with CAKI-1, > 10 µM (inactive); in the test on DU-145 it was > 10 µM (inactive); with HCT-15 it was above 10 µM; with IGROV-1, > 10 µM (inactive). The GI50 with MOLT-4, in the test on NCI-H460, in the test on NCI/ADR-RES, in the test on OVCAR-3, in the test on OVCAR-8 and with SF-295 was > 10 µM (inactive) each time. Also, the GI50 with SK-MEL-2, in the test on SN12C, in the test with SNB-19, with SNB-75 and with TK-10 was > 10 µM (inactive) throughout.

As for `COc1ccc2c(c1)nc1n2C(c2c(Cl)cccc2Cl)SC1` (configuration not stated), the GI50 in the test on ACHN was 40.8 µM (inactive); in the test with BT-549 it was > 67.3 µM (inactive); in the test on CAKI-1, > 60.7 µM (inactive); in the test on DU-145, 22.3 µM (inactive); in the test on HCT-15, 5.81 µM; in the test with IGROV-1 it was 18.1 µM (inactive). For the same compound, the GI50 with MOLT-4 is > 21.6 µM (inactive); in the test with NCI-H460, 12.1 µM (inactive); with NCI/ADR-RES, 4.12 µM (inactive); in the test with OVCAR-3, > 20.5 µM (inactive); in the test on OVCAR-8, > 61 µM (inactive); with SF-295, 5.71 µM (inactive). The GI50 in the test with SK-MEL-2 is > 20.7 µM (inactive); in the test on SN12C, > 57.5 µM (inactive); in the test on SNB-19, > 33.5 µM (inactive); with SNB-75, > 28.2 µM (inactive); in the test on TK-10, > 58.6 µM (inactive); with UACC-62, 18.4 µM (inactive).

On to `O=C1CC2(CCNCC2)C(=O)N1N1CCCC1`, for which the GI50 in the test with ACHN is > 100 µM (inactive); in the test on BT-549, > 100 µM (inactive); in the test on CAKI-1, > 100 µM (inactive); in the test with DU-145 it was > 100 µM (inactive); in the test with HCT-15, above 100 µM; in the test with IGROV-1 it was > 100 µM (inactive). Moreover, the GI50 with MOLT-4, in the test on NCI/ADR-RES, in the test on OVCAR-3, in the test on OVCAR-8, with SF-295 and in the test with SN12C was > 100 µM (inactive) each time. Besides, the GI50 with SNB-19, with SR, with TK-10 and with UACC-62 was > 100 µM (inactive) each time.

Regarding `CNc1nc(SC)nc2c1c(N)nn2C`, the GI50 is > 100 µM (inactive) with ACHN; > 100 µM (inactive) with BT-549; > 100 µM (inactive) in the test with CAKI-1; > 100 µM (inactive) with DU-145; above 100 µM in the test on HCT-15; 78 µM (inactive) with IGROV-1. In addition, the GI50 with MOLT-4, in the test with NCI-H460, with NCI/ADR-RES, with OVCAR-3, in the test on OVCAR-8 and in the test on SF-295 was > 100 µM (inactive) each time. The GI50 was > 100 µM (inactive) with SK-MEL-2; > 100 µM (inactive) in the test with SN12C; > 100 µM (inactive) in the test with SNB-19; 95.7 µM (inactive) with SNB-75; > 100 µM (inactive) in the test on TK-10; > 100 µM (inactive) with UACC-62.

On to `CC(CO)(Nc1ccc([N+](=O)[O-])cc1[N+](=O)[O-])C(=O)O` (configuration not stated), for which the GI50 was 18.7 µM (inactive) with ACHN; 29.5 µM (inactive) in the test on BT-549; 33.8 µM (inactive) with CAKI-1; 22.8 µM (inactive) in the test with DU-145; 17.6 µM with HCT-15; 20 µM (inactive) in the test on IGROV-1. Further, the GI50 with NCI-H460 is 15.5 µM (inactive); in the test on NCI/ADR-RES it was 35.5 µM (inactive); with OVCAR-3, 22.2 µM (inactive); in the test on OVCAR-8, 34.8 µM (inactive); with SF-295 it was 68.9 µM (inactive); with SK-MEL-2, 20.7 µM (inactive). Besides, the GI50 with SN12C was 20.7 µM (inactive); with SNB-19, 43 µM (inactive); in the test with SR, 12.1 µM (inactive); in the test on TK-10, 36.1 µM (inactive); in the test on UACC-62, 33.7 µM (inactive).

Consider `CC1=CC(=O)/C(=C/NC(=S)Nc2ccccc2)C(=O)O1`, for which the GI50 is > 100 µM (inactive) in the test with ACHN; > 100 µM (inactive) in the test on BT-549; > 100 µM (inactive) in the test with CAKI-1; > 100 µM (inactive) with DU-145; above 100 µM with HCT-15; > 100 µM (inactive) with IGROV-1. Further, the GI50 with MOLT-4, in the test with NCI-H460, in the test with NCI/ADR-RES, with OVCAR-3, in the test with OVCAR-8 and with SF-295 was > 100 µM (inactive) throughout. For the same compound, the GI50 in the test with SK-MEL-2, in the test with SN12C, in the test on SNB-19, in the test with SNB-75, with TK-10 and in the test on UACC-62 was > 100 µM (inactive) each time.

Take `CC1(C)O[C@H]([C@H](O)c2nnc3ccc(Cl)nn23)[C@@H]([C@H]2COC(C)(C)O2)O1`: the GI50 is > 100 µM (inactive) in the test with ACHN; > 100 µM (inactive) with BT-549; > 100 µM (inactive) in the test on CAKI-1; > 100 µM (inactive) in the test on DU-145; above 100 µM with HCT-15; > 100 µM (inactive) in the test with IGROV-1. The GI50 with MOLT-4, in the test with NCI-H460, with NCI/ADR-RES, in the test with OVCAR-3, with OVCAR-8 and in the test on SF-295 was > 100 µM (inactive) in each case. For the same compound, the GI50 in the test on SK-MEL-2, in the test on SN12C, in the test with SNB-19, in the test on TK-10 and with UACC-62 was > 100 µM (inactive) in each case.

Regarding `O=C(NC(Cc1ccccc1)(Cc1ccc(O)cn1)C(=O)O)c1ccccc1` (configuration not stated), the GI50 with ACHN is > 100 µM (inactive); with BT-549, > 100 µM (inactive); with CAKI-1, > 100 µM (inactive); in the test with DU-145, > 100 µM (inactive); with HCT-15, above 100 µM; in the test with IGROV-1 it was > 100 µM (inactive). Besides, the GI50 in the test on MOLT-4 is 46.8 µM (inactive); with NCI-H460, > 100 µM (inactive); with NCI/ADR-RES, > 100 µM (inactive); with OVCAR-3, 63 µM (inactive); with OVCAR-8 it was > 100 µM (inactive); in the test on SF-295, 92 µM (inactive). Besides, the GI50 is > 100 µM (inactive) with SK-MEL-2; > 100 µM (inactive) with SNB-19; 69.2 µM (inactive) in the test on SNB-75; > 100 µM (inactive) with TK-10; > 100 µM (inactive) with UACC-62.

Regarding `Cc1ccc(S(=O)(=O)NC(=O)C2C(=O)CC3(CCCCC3)CC2=O)cc1`, the GI50 in the test with ACHN is 22.9 µM (inactive); with BT-549, 27.5 µM (inactive); in the test on CAKI-1, 26.4 µM (inactive); in the test on DU-145 it was 37.5 µM (inactive); in the test on HCT-15 it was 23.2 µM; in the test on IGROV-1, 29.4 µM (inactive). The GI50 is 42.4 µM (inactive) in the test with MOLT-4; 25.2 µM (inactive) with NCI-H460; 19.7 µM (inactive) in the test with NCI/ADR-RES; 29 µM (inactive) in the test with OVCAR-3; 27.7 µM (inactive) in the test on OVCAR-8; 22 µM (inactive) in the test with SF-295. In addition, the GI50 was 30.8 µM (inactive) with SN12C; 41.5 µM (inactive) in the test on SNB-19; 51.4 µM (inactive) in the test with SNB-75; 23.5 µM (inactive) in the test with TK-10; 31.3 µM (inactive) in the test with UACC-62.
